Ends that are not written are not given here.
Experiments:
[1] = molecular target: T1, IκBα (Homo sapiens, UniProt P25963); experiment: In vitro IκBα ubiquitination assay with HeLa cell extract; conditions: cell free system, two different concentrations
T1 sequence (P25963 1-317): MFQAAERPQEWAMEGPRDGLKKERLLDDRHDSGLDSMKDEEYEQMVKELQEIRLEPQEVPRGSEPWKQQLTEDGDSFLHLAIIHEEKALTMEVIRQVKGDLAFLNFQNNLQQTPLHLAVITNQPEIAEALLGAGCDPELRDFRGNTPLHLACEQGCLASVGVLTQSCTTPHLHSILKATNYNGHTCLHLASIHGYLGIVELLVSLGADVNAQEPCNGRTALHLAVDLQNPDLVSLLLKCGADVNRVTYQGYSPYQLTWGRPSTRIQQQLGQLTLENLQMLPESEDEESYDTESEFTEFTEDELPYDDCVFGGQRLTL
Protocol: HeLa cells were harvested by centrifugation at 4,000 rpm. The packed cell volume was estimated, and the cells osmotically lysed by the addition of 5 volumes of hypotonic buffer (10 mM Tris-Cl, pH 7.9, 1.5 mM MgCl2, 10 mM KCl, 0.2 mM PMSF, 0.5 mM DTT). The mixture was incubated on ice for 10 minutes, then homogenized with 12 strokes of a Dounce homogenizer (B Type pestle). The crude lysate was centrifuged for 15 minutes at 4,000 rpm, followed by recentrifugation of the supernatant at 100,000×g for 30 minutes. This supernatant was concentrated by the addition of solid (NH4)2SO4 to 80% saturation, stirred at 4° C. for 30 minutes and centrifuged for 15 minutes at 12,000 rpm. The precipitate was resuspended in 1/5 volume of 20 mM Tris-Cl pH7.6, 20 mM KCl, 5 mM MgCl 2, 1 mM DTT, 0.5 mM PMSF, 5 μM Chymostatin and 20 μM E64, and dialyzed against >500 volumes of 20 mM Tris-Cl pH 7.6, 20 mM KCl, 5 mM MgCl2, 1 mM DTT, 10% glycerol at 4° C. overnight and stored at −70° C. until use.
PR-39 or control peptides were also added to individual reactions. […] The samples were then heated for 5 minutes at 95° C. and analyzed by SDA-PAGE on 4-15% acrylamide gradient gels (BioRad, Hurcules, Calif.). After electrophoresis, the gels were incubated with gentle stirring in 30% methanol 10% acetic acid, dried and analyzed using a Fuji phosphorimager. […]

[2] = test system: U937 cells; experiment: Proteasome-dependent degradation of total cellular proteins (35S Met pulse-chase); format: cell-based, human; conditions: 10 μM, 1 hr chase, chloroquin 45 μM, after 16 hr metabolic labeling
Protocol: Therefore the extent of degradation of long-lived cell proteins before or following exposure was compared to either PR-39 or MG132. The result is given by FIG. 3A.
Exponentially proliferating U937 cells were grown in 10% FBS-RPMI 1640 methionine-free medium supplemented with 200 μCi ^35S Met for 16 hr. Cells were then washed with complete RPMI 1640 medium 3 times and cultured in 10% FBS-RPMI (chase) in the presence of 10 μM of either PR-39 or MG132 or an equal volume of PBS. Chloroquin (45 μM) was added to all cultures to prevent the lysosomal protein degradation. 1 hr later the cells were lysed, and TCA soluble ^35S counts were measured in a liquid scintillation counter (LKB). All experiments were carried out in triplicate and repeated three times. The data are shown as mean±standard deviation.

[3] = Infarct size in mice, ischemia-reperfusion injury; format: in vivo; conditions: infusion prior to restoration of flow
Source text: • a. Inhibition of ischemia-reperfusion injury. Restoration of blood flow to the myocardium in the setting of acute myocardial infarction leads to further damage to ischemic but still live heart muscle due to an influx of inflammatory blood cells that is mediated by NFκB-activated expression of endothelial adhesion molecules ICAM-1 and VCAM-1. Infusion of PR39 prior to restoration of flow blocks this effect due to inhibition of NFκB activity and effectively protects from further myocardial injury. […] Inhibition of chemical pancreatitis. Tissue injury in the pancreas due to chemical or hormonal injury is one of the more common causes of acute pancreatitis. This is largely mediated by NFκB. Pre-treatment with PR39 blocks this injury. • c. PR39 will block any other injury activated NFκB-dependent gene transcription and thus can be used to block the development of skin wounds, ulcers (stomach, duodenum), etc.

Which “IκBα ubiquitination in vitro” value [1] does the source give for “RRRPRPPYLPRPRPPPFFPPRLPPRIPPGFPPRFPPRFP [PR-39]” here?
Its value is “failed to affect IκBα ubiquitination”.

What about the “inhibition of total cell protein degradation” value [2] of the same sequence?
The value was “little or no effect”.

What about the “reduction of infarct size” value [3] of the same sequence?
The value was 60%.

— patent US7169604B1, “Method for PR-39 peptide mediated selective inhibition of IκBα degradation” (Beth Israel Deaconess Medical Center, priority 1998, dated 2007)
